“Also recorded” adds a separate entry of the source.
Columns and labels:
[1] = tested on: TG deposit atherosclerosis in the coronary artery; test: Coronary CT angiography, color-coded images of lipid accumulation in the coronary artery; format: in vivo, human
Description: Before and 50 days after the start of the tricaprin/trisdecanoin diet, a standard coronary CT angiography was performed to generate three-dimensional (3D) DICOM images of the left anterior descending coronary artery. The images were resampled to a voxel size of 0.1 mm^3 and color-coded according to CT values of individual voxels. Smoothing was applied between adjacent voxels. Colors were coded as follows: light gray (yellow in the color image): −25 HU to 0 HU (massive lipid accumulation); medium gray (orange in the color image): 0 HU to 40 HU (moderate lipid accumulation); dark gray (green in the color image): 40 HU to 125 HU (no lipid accumulation).
(§1) Before and 4 years after the start of the tricaprin/trisdecanoin diet, a standard coronary CT angiography was performed, and the images of the inside of the left anterior descending coronary artery were color-coded in the same manner as described in Example 1. The images of the designated segment of the coronary artery were analyzed with a 3D image analysis system SYNAPSE VINCENT v5.5 (FUJIFILM Corporation) to examine changes in lipid accumulation and vascular lumen size in the designated segment. In the image analysis, the area with CT values ranging −25 to 40 HU was regarded as lipid accumulation, and the area with CT values ranging 215 to 700 HU was regarded as the vascular lumen.
(§2) Angiograms of the coronary artery were taken before and 3 months after the start of the tricaprin/trisdecanoin diet. A standard coronary CT angiography was also performed, and the images were color-coded in the same manner as described in Example 1. The images of the designated segment of the coronary artery were subjected to 3D image analysis in the same manner as described in Example 2 to examine changes in lipid accumulation and vascular lumen size in the designated segment.

[2] = tested on: TG deposit atherosclerosis in the coronary artery; test: 3D image analysis (SYNAPSE VINCENT) of lipid accumulation and vascular lumen size in designated coronary segment; format: in vivo, human
Description: as §1, §2

[3] = tested on: coronary arteries of patient with idiopathic TGCV; test: Angiograms of the coronary artery, blood flow; format: in vivo, human; conditions: Example 3 patient, refractory angina
Description: as §2

[4] = Serum lipid levels before and after the start of the tricaprin/trisdecanoin diet; format: in vivo, human; conditions: for LDL cholesterol, serum / HDL cholesterol, serum / TG (triglyceride), serum: After treatment
Description: (§3) The mean values of the triglyceride, LDL cholesterol, and HDL cholesterol levels measured before the start of the tricaprin/trisdecanoin diet were compared to those measured for 4 years after the start of the tricaprin/trisdecanoin diet. […] The LDL cholesterol level was under control within the normal range (60 to 119 mg/dL).
as §3, with “3 months” for “4 years”, “at a level lower than” for “within”

[5] = tested on: recurrent cerebral infarction; test: Clinical course of the patient during the tricaprin/trisdecanoin diet; format: in vivo, human; conditions: Example 2 patient with history of cerebral infarction; 1.5 g/day for 4 years
From the text: A person who had suffered from refractory angina for years. The patient had diabetes with a history of middle cerebral artery occlusion and cerebral infarction. The patient presented to hospital with a chief complaint of rest and nocturnal angina. […] Their chest pain was refractory to existing medications (sublingual nitroglycerin, calcium channel blockers, β-blockers, antiplatelet agents, and statins) and rather worsened. […] The patient received tricaprin/trisdecanoin three times per day after meals in a total daily dose of 1.5 g for 4 years.

[6] = tested on: dermal fibroblasts derived from a diabetic patient; test: Intracellular triglyceride content of dermal fibroblasts cultured with fatty acids; format: cell-based, human; conditions: 2 days of culture; for potency for reducing triglyceride compared with other fatty acid: Example 4-2, 125 μM and 500 μM, FIG. 7
From the text: A portion of skin tissue was sampled from a diabetic patient after the patient's consent. This sample skin tissue was subjected to primary culture (culture medium: DMEM/10% FBS) by a tissue fragment culture method (Explant method) and subsequent successive passages, and then developed into a cell line. The dermal fibroblasts derived from the patient were used to examine the effect of various fatty acids on intracellular triglyceride content. The intracellular triglyceride content of the dermal fibroblasts derived from the diabetic patient was about 5 times higher than the average intracellular triglyceride content of dermal fibroblasts derived from three healthy subjects. The long-chain fatty acids used were palmitic acid (C16:0), oleic acid (C18:1), linoleic acid ([…]), arachidonic acid (C20:4), and […] (C20:5). The medium-chain fatty acids used were heptanoic acid (C7:0) and capric acid (C10:0). These different fatty acids were separately added at 50 μM and 500 μM to the media of dermal fibroblasts from the diabetic patient described above. After 2 days of culture, the cells were collected, and the intracellular triglyceride content was measured using a triglyceride quantification kit (BioVision). The medium-chain fatty acids used were capric acid (C10:0), caprylic acid (C8:0), and 8-methylnonanoic acid ([…]). These different fatty acids were separately added at 125 μM and 500 μM to the media of dermal fibroblasts from the diabetic patient described above. After 2 days of culture, the cells were collected, and the intracellular triglyceride content was measured using a triglyceride quantification kit (BioVision). For controls, 500 μM palmitic acid (C16:0) or no fatty acid was added to the medium of the same dermal fibroblasts as those used above.

PCSK9 = target: T1, PCSK9 (Homo sapiens, UniProt Q8NBP7); conditions: evolocumab group (484 patients) on statin treatment, cited from earlier work
T1 construct: randomly assigned to receive evolocumab (monoclonal antibody against PCSK9); host or cells: patients (in vivo, endogenous circulating PCSK9)
T1 sequence (Q8NBP7 153-692): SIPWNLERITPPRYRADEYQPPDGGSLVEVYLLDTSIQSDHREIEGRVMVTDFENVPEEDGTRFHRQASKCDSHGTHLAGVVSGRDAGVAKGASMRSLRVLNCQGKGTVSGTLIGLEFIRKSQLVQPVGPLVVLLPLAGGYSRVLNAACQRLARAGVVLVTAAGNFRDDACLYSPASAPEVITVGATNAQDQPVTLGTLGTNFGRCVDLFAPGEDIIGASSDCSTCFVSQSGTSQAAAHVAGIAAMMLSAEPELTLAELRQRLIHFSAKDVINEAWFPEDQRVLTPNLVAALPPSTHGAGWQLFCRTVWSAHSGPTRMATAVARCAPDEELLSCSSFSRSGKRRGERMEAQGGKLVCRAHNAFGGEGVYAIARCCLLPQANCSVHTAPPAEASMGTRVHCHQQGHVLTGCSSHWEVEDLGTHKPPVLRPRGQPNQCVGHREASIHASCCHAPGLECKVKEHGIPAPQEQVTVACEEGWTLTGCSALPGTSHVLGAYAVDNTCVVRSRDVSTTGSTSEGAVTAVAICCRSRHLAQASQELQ

[7] = Example 2 patient, 1.5 g/day for 4 years
[8] = Example 3 patient, 4.5 g/day for 3 months

CCCCCCCCCC(=O)OCC(COC(=O)CCCCCCCCC)OC(=O)CCCCCCCCC [tricaprin/trisdecanoin]
TG deposit atherosclerosis in the coronary artery (color-coded CT images) ([1]; Example 1 patient, person with ATGL deficiency, 6 to 9 g/day after meals for 50 days, left anterior descending coronary artery): regression of TG deposit atherosclerosis in the coronary artery | stenosis of the vascular lumen ([1]; Example 2 patient, refractory angina, diabetes, 1.5 g/day for 4 years, segment 7 to 9 cm from coronary ostium, before diet 90% to 75% diffuse stenosis): about 25% | TG deposit atherosclerosis in the coronary artery [1, 7]: regression of TG deposit atherosclerosis in the coronary artery | characteristic pattern of TG deposit atherosclerosis (lipid deposition protruding from adventitial toward medial side) [1, 7]: diminished or disappeared | diameter of the vascular lumen through which the blood flowed [1, 7]: marked enlargement | TG deposit atherosclerosis in the coronary artery [1, 8]: regression of TG deposit atherosclerosis in the coronary artery | diameter of the vascular lumen through which the blood flowed [1, 8]: marked enlargement | Vascular lumen ([2]; % increase vs before diet, Example 2 patient, 1.5 g/day for 4 years, segment designated in FIG. 2, 2.2 cm, CT values 215 to 700 HU): 260% increase | Vascular lumen ([2]; % increase, Example 3 patient, 4.5 g/day for 3 months, not stented segment Circumflex 7.2 cm): 17% increase | Vascular lumen ([2]; % increase, Example 3 patient, 4.5 g/day for 3 months, not stented segment LAD 3.7 cm): 48% increase | Vascular lumen ([2]; % increase, Example 3 patient, 4.5 g/day for 3 months, not stented segment RCA 3.4 cm): 24% increase | Lipid accumulation ([2]; % reduction vs before diet, Example 2 patient, 1.5 g/day for 4 years, segment designated in FIG. 2, 2.2 cm, CT values -25 to 40 HU): 27% reduction | Lipid accumulation ([2]; % reduction, Example 3 patient, 4.5 g/day for 3 months, not stented segment Circumflex 7.2 cm): 50% reduction | Lipid accumulation ([2]; % reduction, Example 3 patient, 4.5 g/day for 3 months, not stented segment LAD 3.7 cm): 53% reduction | Lipid accumulation ([2]; % reduction, Example 3 patient, 4.5 g/day for 3 months, not stented segment RCA 3.4 cm): 14% reduction | blood flow to the peripheral coronary arteries ([3]; 4.5 g/day for 3 months): clearly improved | blood flow in the coronary arteries as a whole ([3]; oral 4.5 g/day for 3 months): improvement in coronary blood flow; also recorded: improvement in the blood flow | LDL cholesterol, serum ([4]; Mean ± SD over 3 months, Example 3 patient, 4.5 g/day, on statin, before treatment 52 ± 2.9): 54 ± 1.8 mg/dL | HDL cholesterol, serum ([4]; Mean ± SD over 3 months, Example 3 patient, 4.5 g/day, before treatment 35 ± 1.0): 38 ± 1.0 mg/dL | TG (triglyceride), serum ([4]; Mean ± SD over 3 months, Example 3 patient, 4.5 g/day, before treatment 78 ± 2.1): 75 ± 11.3 mg/dL | HDL cholesterol, serum ([4]; Mean ± SD over 4 years, Example 2 patient, 1.5 g/day, before treatment 34.5 ± 0.5): 33 ± 4.0 mg/dL | LDL cholesterol, serum ([4]; Mean ± SD over 4 years, Example 2 patient, 1.5 g/day, before treatment 95 ± 9.0): 91 ± 13.6 mg/dL | TG (triglyceride), serum ([4]; Mean ± SD over 4 years, Example 2 patient, 1.5 g/day, before treatment 308 ± 7.5): 334 ± 118.2 mg/dL | effect on the serum lipid levels [4, 7]: no effect on the serum lipid levels | effect on the serum lipid levels [4, 8]: no effect on the serum lipid levels | recurrent cerebral infarction [5]: free from recurrent cerebral infarction

CC(C)CCCCCCC(=O)O [8-methylnonanoic acid]
potency for reducing triglyceride compared with other fatty acid [6]: more potent medium-chain fatty acids for reducing triglyceride than palmitic acid

CCCCCCCCCC(=O)O [capric acid]
intracellular triglyceride content relative to control cells (100%) ([6]; Example 4-1, fatty acid added at 50 μM and 500 μM, FIG. 6): reduction in intracellular triglyceride content | potency for reducing triglyceride compared with other fatty acid [6]: more potent medium-chain fatty acids for reducing triglyceride than palmitic acid

B1: evolocumab: monoclonal antibody against PCSK9 (antibody, chains of the INN, looked up, V domains shown)
VH: EVQLVQSGAEVKKPGASVKVSCKASGYTLTSYGISWVRQAPGQGLEWMGWVSFYNGNTNYAQKLQGRGTMTTDPSTSTAYMELRSLRSDDTAVYYCARGYGMDVWGQGTTVTVSS
VL: ESALTQPASVSGSPGQSITISCTGTSSDVGGYNSVSWYQQHPGKAPKLMIYEVSNRPSGVSNRFSGSKSGNTASLTISGLQAEDEADYYCNSYTSTSMVFGGGTKLTVL
LDL cholesterol level at week 76 (PCSK9; 92.6 mg/dL before the start of the trial): 36.6 mg/dL | LDL cholesterol level at week 76 as % of the level before the start of the trial (PCSK9): about 40% | percent atheroma volume, reduction at week 76 (PCSK9): 0.95%
